In patent publication US9085555B2, “Complement pathway modulators and uses thereof” (priority 2011, dated 2015):

Target: Factor D (Homo sapiens (Human), UniProt P00746)
Experiment: biochemical
Type: biochemical
Conditions: not given

Sequence of Factor D (P00746 26-253): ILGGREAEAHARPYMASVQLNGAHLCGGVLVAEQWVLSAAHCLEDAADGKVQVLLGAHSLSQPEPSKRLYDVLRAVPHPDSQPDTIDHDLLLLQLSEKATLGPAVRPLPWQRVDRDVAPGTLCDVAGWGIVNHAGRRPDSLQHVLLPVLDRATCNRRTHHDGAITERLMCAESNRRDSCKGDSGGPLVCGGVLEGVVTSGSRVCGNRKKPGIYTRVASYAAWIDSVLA

SMILES | IC50
NC(=O)n1cc(CC(=O)N2C[C@@H](N)C[C@H]2C(=O)NCc2cccc(Cl)c2F)c2ccccc21 [Example 468, 3-{2-[(2S,4S)-4-Amino-2-(3-chloro-2-fluoro-benzylcarbamoyl)-pyrrolidin-1-yl]-2-oxo-ethyl}-indole-1-carboxylic acid amide] | 350 nM

Same assay, conditions: read-out: IC50

SMILES | IC50
CN(C)C[C@@]1(F)C[C@@H](C(=O)NCc2cccc(Cl)c2F)N(C(=O)Cc2cn(C(N)=O)c3ccccc23)C1 [Example 445, 3-{2-[(2S,4S)-2-(3-Chloro-2-fluoro-benzylcarbamoyl)-4-dimethylaminomethyl-4-fluoro-pyrrolidin-1-yl]-2-oxo-ethyl}-indole-1-carboxylic acid amide] | 580 nM
NC(=O)n1cc(CC(=O)N2[C@@H]3C[C@@H]3C[C@H]2C(=O)NCc2cccc(Cl)c2F)c2ccccc21 [Example 446, 3-{2-[(1R,3S,5R)-3-(3-Chloro-2-fluoro-benzylcarbamoyl)-2-aza-bicyclo[3.1.0]hex-2-yl]-2-oxo-ethyl}-indole-1-carboxylic acid amide] | 16 nM
NC(=O)n1cc(CC(=O)N2C[C@H](F)C[C@H]2C(=O)NCc2cccc(Cl)c2F)c2ccccc21 [Example 448, 3-{2-[(2S,4R)-2-(3-Chloro-2-fluoro-benzylcarbamoyl)-4-fluoro-pyrrolidin-1-yl]-2-oxo-ethyl}-indole-1-carboxylic acid amide] | 26 nM
NC(=O)n1cc(CC(=O)N2[C@@H]3C[C@@H]3C[C@H]2C(=O)N[C@H](CO)c2cccc(Cl)c2F)c2ccccc21 [Example 449, 3-(2-{(1R,3S,5R)-3-[(S)-1-(3-Chloro-2-fluoro-phenyl)-2-hydroxy-ethylcarbamoyl]-2-aza-bicyclo[3.1.0]hex-2-yl}-2-oxo-ethyl)-indole-1-carboxylic acid amide] | 51 nM
NC(=O)n1cc(CC(=O)N2CCS[C@H]2C(=O)NCc2cccc(Cl)c2F)c2ccccc21 [Example 450, 3-{2-[(S)-2-(3-Chloro-2-fluoro-benzylcarbamoyl)-thiazolidin-3-yl]-2-oxo-ethyl}-indole-1-carboxylic acid amide] | 25 nM
NC(=O)n1cc(CC(=O)N2C[C@@](F)(CO)C[C@H]2C(=O)NCc2cccc(Cl)c2F)c2ccccc21 [Example 451, 3-{2-[(2S,4R)-2-(3-Chloro-2-fluoro-benzylcarbamoyl)-4-fluoro-4-hydroxymethyl-pyrrolidin-1-yl]-2-oxo-ethyl}-indole-1-carboxylic acid amide] | 90 nM
COc1ccc2c(c1)c(CC(=O)N1C3CC3C[C@H]1C(=O)NCc1cccc(Cl)c1F)cn2C(N)=O (stereo partly drawn) [Example 452, 3-{2-[(1R,3S,5R)-3-(3-Chloro-2-fluoro-benzylcarbamoyl)-2-aza-bicylo[3.1.0]hex-2-yl]-2-oxo-ethyl}-5-methoxy-indole-1-carboxylic acid amide] | 15 nM
NC(=O)n1cc(CC(=O)N2[C@@H]3C[C@@H]3C[C@H]2C(=O)NCc2cccc(Cl)c2F)c2cc(OCCO)ccc21 [Example 453, 3-{2-[(1R,3S,5R)-3-(3-Chloro-2-fluoro-benzylcarbamoyl)-2-aza-bicyclo[3.1.0]hex-2-yl]-2-oxo-ethyl}-5-(2-hydroxy-ethoxy)-indole-1-carboxylic acid amide] | 13 nM
COC[C@@]12C[C@@H](C(=O)NCc3cccc(Cl)c3F)N(C(=O)Cc3cn(C(N)=O)c4ccccc34)[C@@H]1C2 [Example 454, 3-{2-[(1R,3S,5S)-3-(3-Chloro-2-fluoro-benzylcarbamoyl)-5-methoxymethyl-2-aza-bicyclo[3.1.0]hex-2-yl]-2-oxo-ethyl}-indole-1-carboxylic acid amide] | 103 nM
NC(=O)n1cc(CC(=O)N2[C@@H]3C[C@@H]3C[C@H]2C(=O)Nc2cccc(OC(F)(F)F)c2)c2cc(OCCO)ccc21 [Example 455, 5-(2-Hydroxy-ethoxy)-3-{2-oxo-2-[(1R,3S,5R)-3-(3-trifluoromethoxy-phenylcarbamoyl)-2-aza-bicyclo[3.1.0]hex-2-yl]-ethyl}-indole-1-carboxylic acid amide] | 767 nM
NC(=O)n1cc(CC(=O)N2[C@@H]3C[C@@H]3C[C@H]2C(=O)NCc2ccc(Cl)s2)c2ccccc21 [Example 456, 3-(2-{(1R,3S,5R)-3-[(5-Chloro-thiophen-2-ylmethyl)-carbamoyl]-2-aza-bicyclo[3.1.0]hex-2-yl}-2-oxo-ethyl)-indole-1-carboxylic acid amide] | 85 nM
NC(=O)n1cc(CC(=O)N2[C@@H]3C[C@@H]3C[C@H]2C(=O)N[C@H](CCO)c2cccc(Cl)c2F)c2ccccc21 [Example 457, 3-(2-{(1R,3S,5R)-3-[(R)-1-(3-Chloro-2-fluoro-phenyl)-3-hydroxy-propylcarbamoyl]-2-azabicyclo[3.1.0]hex-2-yl}-2-oxo-ethyl)-indole-1-carboxylic acid amide] | 107 nM
CN(C)C[C@@H](NC(=O)[C@@H]1C[C@H]2C[C@H]2N1C(=O)Cc1cn(C(N)=O)c2ccccc12)c1cccc(Cl)c1F [Example 458, 3-(2-{(1R,3S,5R)-3-[(S)-1-(3-Chloro-2-fluoro-phenyl)-2-dimethylamino-ethylcarbamoyl]-2-aza-bicyclo[3.1.0]hex-2-yl}-2-oxo-ethyl)-indole-1-carboxylic acid amide] | 169 nM
C[C@@]1(F)C[C@@H](C(=O)NCc2cccc(Cl)c2F)N(C(=O)Cc2cn(C(N)=O)c3ccc(OCCO)cc23)C1 [Example 459, 3-{2-[(2S,4R)-2-(3-Chloro-2-fluoro-benzylcarbamoyl)-4-fluoro-4-methyl-pyrrolidin-1-yl]-2-oxo-ethyl)-5-(2-hydroxy-ethoxy)-indole-1-carboxylic acid amide] | 211 nM
NC(=O)n1cc(CC(=O)N2C[C@H](F)C[C@H]2C(=O)NCc2cccc(Cl)c2F)c2cc(F)ccc21 [Example 460, 3-{2-[(2S,4R)-2-(3-Chloro-2-fluoro-benzylcarbamoyl)-4-fluoro-pyrrolidin-1-yl]-2-oxo-ethyl}-5-fluoro-indole-1-carboxylic acid amide] | 20 nM
NC(=O)n1cc(CC(=O)N2CCS[C@H]2C(=O)NCc2cccc(Cl)c2F)c2cc(OCCO)ccc21 [Example 462, 3-{2-[(S)-2-(3-Chloro-2-fluoro-benzylcarbamoyl)-thiazolidin-3-yl]-2-oxo-ethyl}-5-(2-hydroxy-ethoxy)-indole-1-carboxylic acid amide] | 75 nM
NC(=O)n1cc(CC(=O)N2C[C@H]3C[C@H]3[C@H]2C(=O)N[C@H](CO)c2cccc(Cl)c2F)c2ccccc21 [Example 463, 3-(2-{(1R,2S,5S)-2-[(S)-1-(3-Chloro-2-fluoro-phenyl)-2-hydroxy-ethylcarbamoyl]-3-azabicyclo[3.1.0]hex-3-yl}-2-oxo-ethyl)-indole-1-carboxylic acid amide] | 3110 nM
COC[C@@H](NC(=O)[C@@H]1C[C@H]2C[C@H]2N1C(=O)Cc1cn(C(N)=O)c2ccccc12)c1cccc(Cl)c1F [Example 464, 3-(2-{(1R,3S,5R)-3-[(S)-1-(3-Chloro-2-fluoro-phenyl)-2-methoxy-ethylcarbamoyl]-2-aza-bicyclo[3.1.0]hex-2-yl}-2-oxo-ethyl)-indole-1-carboxylic acid amide] | 254 nM
NC(=O)n1cc(CC(=O)N2C[C@H](F)[C@@H](N)[C@H]2C(=O)NCc2cccc(Cl)c2F)c2ccccc21 [Example 466, 3-{2-[(2S,3S,4S)-3-Amino-2-(3-chloro-2-fluoro-benzylcarbamoyl)-4-fluoro-pyrrolidin-1-yl]-2-oxo-ethyl}-indole-1-carboxylic acid amide] | 43 nM
NC(=O)n1cc(CC(=O)N2[C@H](C(=O)NCc3cccc(Cl)c3F)C[C@@]3(CO)C[C@@H]23)c2ccccc21 [Example 467, 3-{2-[(1R,3S,5S)-3-(3-Chloro-2-fluoro-benzylcarbamoyl)-5-hydroxymethyl-2-aza-bicyclo[3.1.0]hex-2-yl]-2-oxo-ethyl}-indole-1-carboxylic acid amide] | 47 nM
NC(=O)n1cc(CC(=O)N2NCCC2C(=O)NCc2cccc(Cl)c2)c2ccccc21 (stereo not shown) [Example 469, 3-{2-[5-(3-Chloro-benzylcarbamoyl)-pyrazolidin-1-yl]-2-oxo-ethyl}-indole-1-carboxylic acid amide] | 3350 nM
NC[C@@]1(F)C[C@@H](C(=O)NCc2cccc(Cl)c2F)N(C(=O)Cc2cn(C(N)=O)c3ccccc23)C1 [Example 470, 3-{2-[(2S,4S)-4-Aminomethyl-2-(3-chloro-2-fluoro-benzylcarbamoyl)-4-fluoro-pyrrolidin-1-yl]-2-oxo-ethyl}-indole-1-carboxylic acid amide] | 250 nM
NC[C@@]1(F)C[C@@H](C(=O)NCc2c(F)ccc(Cl)c2F)N(C(=O)Cc2cn(C(N)=O)c3ccccc23)C1 [Example 471, 3-{2-[(2S,4S)-4-Aminomethyl-2-(3-chloro-2,6-difluoro-benzylcarbamoyl)-4-fluoro-pyrrolidin-1-yl]-2-oxo-ethyl}-indole-1-carboxylic acid amide] | 89 nM
CN(C)CCOc1ccc2c(c1)c(CC(=O)N1[C@@H]3C[C@@H]3C[C@H]1C(=O)NCc1cccc(Cl)c1F)cn2C(N)=O [Example 472, 3-{2-[(1R,3S,5R)-3-(3-Chloro-2-fluoro-benzylcarbamoyl)-2-aza-bicyclo[3.1.0]hex-2-yl]-2-oxo-ethyl}-5-(2-dimethylamino-ethoxy)-indole-1-carboxylic acid amide] | 255 nM
NC(=O)n1cc(CC(=O)N2[C@@H]3C[C@@H]3C[C@H]2C(=O)NCc2cccc(Cl)c2F)c2ccc(CC(=O)O)cc21 [Example 473, (1-Carbamoyl-3-{2-[(1R,3S,5R)-3-(3-chloro-2-fluoro-benzylcarbamoyl)-2-aza-bicyclo[3.1.0]hex-2-yl]-2-oxo-ethyl}-1H-indol-6-yl)-acetic acid] | 463 nM
NC(=O)n1cc(CC(=O)N2[C@@H]3C[C@@H]3C[C@H]2C(=O)NCc2cccc(Cl)c2F)c2ccc(CCO)cc21 [Example 474, 3-{2-[(1R,3S,5R)-3-(3-Chloro-2-fluoro-benzylcarbamoyl)-2-aza-bicyclo[3.1.0]hex-2-yl]-2-oxo-ethyl}-6-(2-hydroxy-ethyl)-indole-1-carboxylic acid amide] | 95 nM
NC(=O)c1cn(CC(=O)N2[C@@H]3C[C@@H]3C[C@H]2C(=O)NCc2cccc(Cl)c2F)c2ccccc12 [Example 475, 1-{2-[(1R,3S,5R)-3-(3-Chloro-2-fluoro-benzylcarbamoyl)-2-aza-bicyclo[3.1.0]hex-2-yl]-2-oxo-ethyl}-1H-indole-3-carboxylic acid amide] | 350 nM
